Data from patent US20100041089A1, “IMPROVED METHOD FOR DETECTING CHEMICAL […]” (priority 2006, published 2010).

System: yeast genes (expressed mRNA)
Experiment: DNA chip measurement of expressed mRNA of yeast genes after culture with a toxic chemical substance
Format: cell-based, Saccharomyces cerevisiae S288C
Summary of the method: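 Two-hour exposure of growing S. cerevisiae S288C (YPD, 25° C) to a sublethal toxicant preceded RNA isolation. Fluorescent cDNA was hybridized to a whole-genome array; a treated-to-untreated signal ratio of two or more was taken as significant.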

With C=CC=O [(14), Acrolein] the “The level of expressed mRNA in the presence of chemical substance/The level of expressed mRNA in the absence of chemical substance” value (yeast gene YGL053W, cultured two hours with substance) was 1.1, the “The level of expressed mRNA in the presence of chemical substance/The level of expressed mRNA in the absence of chemical substance” value (yeast gene YGL091C, DNA repair protein genes, cultured two hours with substance) was 3.1 and the “The level of expressed mRNA in the presence of chemical substance/The level of expressed mRNA in the absence of chemical substance” value (yeast gene YGL121C, cultured two hours with substance) was 5.8. For the same compound, the “The level of expressed mRNA in the presence of chemical substance/The level of expressed mRNA in the absence of chemical substance” value (yeast gene YGL136C, cultured two hours with substance) was 2.3, the “The level of expressed mRNA in the presence of chemical substance/The level of expressed mRNA in the absence of chemical substance” value (yeast gene YGL199C, cultured two hours with substance) was 0.8 and the “The level of expressed mRNA in the presence of chemical substance/The level of expressed mRNA in the absence of chemical substance” value (yeast gene YGR043C, cultured for two hours with substance) was 4.1. For the same compound, the “The level of expressed mRNA in the presence of chemical substance/The level of expressed mRNA in the absence of chemical substance” value (yeast gene YGR064W, cultured two hours with the chemical substance) was 2.1, the “The level of expressed mRNA in the presence of chemical substance/The level of expressed mRNA in the absence of chemical substance” value (yeast gene YGR101W, cultured two hours with substance) was 0.9 and the “The level of expressed mRNA in the presence of chemical substance/The level of expressed mRNA in the absence of chemical substance” value (yeast gene YGR110W, cultured two hours with substance) was 2.8. For the same compound, the “The level of expressed mRNA in the presence of chemical substance/The level of expressed mRNA in the absence of chemical substance” value (yeast gene YGR130C, cultured two hours with substance) was 0.9, the “The level of expressed mRNA in the presence of chemical substance/The level of expressed mRNA in the absence of chemical substance” value (yeast gene YGR146C, cultured two hours with substance) was 1.3 and the “The level of expressed mRNA in the presence of chemical substance/The level of expressed mRNA in the absence of chemical substance” value (yeast gene YGR154C, cultured two hours with substance) was 2.2. The “The level of expressed mRNA in the presence of chemical substance/The level of expressed mRNA in the absence of chemical substance” value (yeast gene YGR209C (detoxification protein gene)) was 5.0, the “The level of expressed mRNA in the presence of chemical substance/The level of expressed mRNA in the absence of chemical substance” value (yeast gene YGR221C, cultured two hours with substance) was 1.4 and the “The level of expressed mRNA in the presence of chemical substance/The level of expressed mRNA in the absence of chemical substance” value (yeast gene YHR029C, cultured two hours with substance) was 3.5. For the same compound, the “The level of expressed mRNA in the presence of chemical substance/The level of expressed mRNA in the absence of chemical substance” value (yeast gene YHR138C, cultured two hours with substance) was 3.4, the “The level of expressed mRNA in the presence of chemical substance/The level of expressed mRNA in the absence of chemical substance” value (yeast gene YHR179W, cultured for two hours with substance) was 5.8 and the “The level of expressed mRNA in the presence of chemical substance/The level of expressed mRNA in the absence of chemical substance” value (yeast gene YHR199C, cultured two hours with substance) was 2.0. For the same compound, the “The level of expressed mRNA in the presence of chemical substance/The level of expressed mRNA in the absence of chemical substance” value (yeast gene YHR209W, cultured two hours with substance) was 2.2, the “The level of expressed mRNA in the presence of chemical substance/The level of expressed mRNA in the absence of chemical substance” value (yeast gene YIL015W) was 5.9 and the “The level of expressed mRNA in the presence of chemical substance/The level of expressed mRNA in the absence of chemical substance” value (yeast gene YIL023C, cultured two hours with substance) was 0.7. For the same compound, the “The level of expressed mRNA in the presence of chemical substance/The level of expressed mRNA in the absence of chemical substance” value (yeast gene YIL024C, cultured two hours with substance) was 1.5, the “The level of expressed mRNA in the presence of chemical substance/The level of expressed mRNA in the absence of chemical substance” value (yeast gene YIL041W, cultured two hours with substance) was 1.3 and the “The level of expressed mRNA in the presence of chemical substance/The level of expressed mRNA in the absence of chemical substance” value (yeast gene YIL057C, cultured two hours with the chemical substance) was 1.5. For the same compound, the “The level of expressed mRNA in the presence of chemical substance/The level of expressed mRNA in the absence of chemical substance” value (yeast gene YIL087C, cultured two hours with substance) was 1.3, the “The level of expressed mRNA in the presence of chemical substance/The level of expressed mRNA in the absence of chemical substance” value (yeast gene YIL117C, cultured two hours with substance) was 2.6 and the “The level of expressed mRNA in the presence of chemical substance/The level of expressed mRNA in the absence of chemical substance” value (yeast gene YJL020C, cultured two hours with substance) was 1.2. The “The level of expressed mRNA in the presence of chemical substance/The level of expressed mRNA in the absence of chemical substance” value (yeast gene YJL036W, cultured two hours with substance) was 1.5, the “The level of expressed mRNA in the presence of chemical substance/The level of expressed mRNA in the absence of chemical substance” value (yeast gene YJL057C, cultured two hours with substance) was 1.6 and the “The level of expressed mRNA in the presence of chemical substance/The level of expressed mRNA in the absence of chemical substance” value (yeast gene YJL066C, cultured two hours with substance) was 1.0. For the same compound, the “The level of expressed mRNA in the presence of chemical substance/The level of expressed mRNA in the absence of chemical substance” value (yeast gene YJL082W, cultured two hours with substance) was 0.5, the “The level of expressed mRNA in the presence of chemical substance/The level of expressed mRNA in the absence of chemical substance” value (yeast gene YJL108C, cultured two hours with substance) was 1.0 and the “The level of expressed mRNA in the presence of chemical substance/The level of expressed mRNA in the absence of chemical substance” value (yeast gene YJL149W, cultured two hours with substance) was 1.1. For the same compound, the “The level of expressed mRNA in the presence of chemical substance/The level of expressed mRNA in the absence of chemical substance” value (yeast gene YJL151C, cultured two hours with substance) was 1.3, the “The level of expressed mRNA in the presence of chemical substance/The level of expressed mRNA in the absence of chemical substance” value (yeast gene YJL152W, cultured two hours with substance) was 1.4 and the “The level of expressed mRNA in the presence of chemical substance/The level of expressed mRNA in the absence of chemical substance” value (yeast gene YJL161W, cultured two hours with substance) was 2.2. The “The level of expressed mRNA in the presence of chemical substance/The level of expressed mRNA in the absence of chemical substance” value (yeast gene YJL171C, cultured two hours with substance) was 1.0, the “The level of expressed mRNA in the presence of chemical substance/The level of expressed mRNA in the absence of chemical substance” value (yeast gene YJL186W, cultured two hours with substance) was 0.8 and the “The level of expressed mRNA in the presence of chemical substance/The level of expressed mRNA in the absence of chemical substance” value (yeast gene YJR008W, cultured two hours with substance) was 1.2. The “The level of expressed mRNA in the presence of chemical substance/The level of expressed mRNA in the absence of chemical substance” value (yeast gene YJR048W, cultured for two hours with substance) was 2.5, the “The level of expressed mRNA in the presence of chemical substance/The level of expressed mRNA in the absence of chemical substance” value (yeast gene YJR054W, cultured two hours with substance) was 1.2 and the “The level of expressed mRNA in the presence of chemical substance/The level of expressed mRNA in the absence of chemical substance” value (yeast gene YKL065C, cultured two hours with substance) was 2.1.
